Test results: the OPERA property sets (Mansouri et al. 2018)

Structure (SMILES) | logP
CC(C)c1cccc(-c2ccccc2)c1 | 5.33
COC1=C(OC)C(=O)C(C)=CC1=O | 0.8
COc1cc(N=Nc2c(Br)cc([N+](=O)[O-])cc2[N+](=O)[O-])c(NC(C)=O)c(N(CCOC(C)=O)CCOC(C)=O)c1 | 4.44
CCCCCCCCCCCCCCO | 6.03
Cc1cccc(C)c1NC(=O)c1cc(S(N)(=O)=O)c(Cl)cc1O | 2.19
CC=O | -0.34
Cc1cc(Cl)c(Cc2cc(Cl)ccc2Cl)cc1Cl | 7.48
Cc1cn([C@H]2C=C[C@@H](CO)O2)c(=O)[nH]c1=S | 0.09
CCCCC(O)CCC (stereo not drawn) | 2.68
CNC(N)=S | -0.69
CCCCc1ccc(Cn2cncn2)cc1 | 2.81
Cc1cc(C)nc(NC(=O)NS(=O)(=O)c2ccccc2C(=O)OC2COC2)n1 | 1.1
CCn1cc(C(=O)NC(C(=O)OC)C(C)C)c(=O)c2ccc(C)nc21 (stereo not drawn) | 3.61
CC(CCC(=O)NCC(=O)O)C1CCC2C3CC(O)C4CC(O)CCC4(C)C3CCC12C (stereo not drawn) | 2.15
CCCCCCCCNC(=O)n1cc(F)c(=O)[nH]c1=O | 3.9
Cc1cc(Br)cc(C)c1C#[N+][O-] | 3.63
CC(C)NCC(O)c1ccc(NS(C)(=O)=O)cc1 (stereo not drawn) | 0.24
O=C(O)c1nc(Cl)ccc1Cl | 1.06
Clc1ccc(Cn2cncn2)cc1Cl | 2.54
NS(=O)(=O)c1nc2ccc(OCc3ccccc3)cc2s1 | 3.18
CCCCc1ccc(N)cc1 | 3.05
CCCN(CC1CC1)c1c([N+](=O)[O-])cc(C(F)(F)F)cc1[N+](=O)[O-] | 5.58
N#CCCN(N)c1nc2ccccc2o1 | 0.9
CSCCCOc1ccc([N+](=O)[O-])cc1 | 3.24
COc1c(Cl)ccc(Cl)c1Cl | 3.64

Structure (SMILES) | logP
O=C(O)c1c(C(=O)O)c(C(=O)O)c(C(=O)O)c(C(=O)O)c1C(=O)O | 1.5
Clc1ccc(Nc2cc3nc4ccccc4n(-c4ccc(Cl)cc4)c-3cc2=NCC2CCNCC2)cc1 | 6.44
O=C(Nc1ccc(O)cc1)C(Cl)Cl | 1.6
COc1cc(Cl)c(Cl)cc1Cl | 3.85
CN(C)P1(=O)N(C)CCN1C | 0.02
O=C1c2ccccc2C(=O)N1SC1CCCCC1 | 3.66
CC(C)C(=O)Nc1ccc([N+](=O)[O-])c(C(F)(F)F)c1 | 3.35
CN(CCO)C(=O)COC(=O)c1ccccc1O | 0.86
N[C@@H](Cc1cnc[nH]1)C(=O)O | -3.32
O=C(OCn1ncc2c(=O)[nH]cnc21)c1cccnc1 | 0.27
CCN1CCCC1=O | -0.04
COc1ccc(C(OC(C)=O)C(Cl)(Cl)Cl)cc1 (stereo not drawn) | 3.72
Oc1ncnc2[nH]ncc12 | -0.55
CC1(C2=CCCCC2)C(=O)NC(=O)NC1=O | 1.6
O=c1ccc2cc3ccoc3cc2o1 | 1.67
N=C(N)NN=C1C=CC(=NNC(N)=O)C=C1 | 1.56
Clc1cc2c(Cl)ccc(Cl)c2c(Cl)c1Cl | 6.8
Cc1ccc2cc3ccccc3cc2c1 | 5
CCNC(=O)CNC(=O)c1ccccc1 | 0.58
CCCCCOC(=O)c1cc(=O)[nH]c(=O)[nH]1 | 1.62
NC(=O)N=NC(N)=O | -1.7
Clc1ccc2c(Cl)c(Cl)c(Cl)c(Cl)c2c1 | 7
COC(=O)c1ccc(Cl)cc1 | 2.87
CC(Cc1ccc(C(C)(C)C)cc1)CN1C[C@@H](C)O[C@@H](C)C1 (single isomer, unassigned) | 4.93
Brc1cc(Br)c(Oc2c(Br)c(Br)c(Br)c(Br)c2Br)cc1Br | 8.71

Structure (SMILES) | logP
CC(=O)Nc1ccc2c(c1)Cc1cc([N+](=O)[O-])ccc1-2 | 3.08
CCN(CC)CCNC(=O)c1ccc(N)c(Cl)c1 | 1.7
C=CCSCC1Nc2cc(Cl)c(S(N)(=O)=O)cc2S(=O)(=O)N1 (stereo not drawn) | 1.17
Cc1cccc2c1Cc1ccccc1-2 | 4.97
CCCCCCCCOC(=O)c1ccc(N)cc1 | 5.02
O=C1CCC2CCC(=O)N12 | -1.11
CN1CCN(CCn2cncc2[N+](=O)[O-])CC1 | -0.2
COP(=S)(OC)Oc1ccc(C#N)cc1 | 2.71
CCCCCNC(=O)CCC(NS(=O)(=O)c1ccccc1)C(=O)O (stereo not drawn) | 0.03
CCCS(=O)c1ccc2[nH]c(NC(=O)OC)nc2c1 (stereo not drawn) | 1.27
CCCCC(OC(Cc1ccccc1)C(=O)N1CCC(OCOC)CC1)C(=O)NC(CC1CCCCC1)C(O)CC(C(=O)NCCCNC(C)=O)C(C)C (stereo not drawn) | 4.3
CCC1CCCCC1 | 4.56
CN(C)c1cccc([N+](=O)[O-])c1 | 2.16
CN1C(=O)CCC1(O)c1cccnc1 (stereo not drawn) | -0.57
COCCn1cnc2[nH]c(=O)n(C)c(=N)c21 | -1.49
O=C(OC1C2C=CC1C=C2)c1ccccc1 (stereo not drawn) | 3.03
Cc1ccc(C)c(C)n1 | 2.05
N#CC(C#N)=Cc1ccc(Cl)o1 | 2.17
COc1ccc(C=NNC(=N)N)cc1 | 0.29
Cc1ccc(-c2ccccc2)cc1 | 4.63
COc1ccc2[nH]c3c4ccc(Cl)cc4ncc3c2c1 | 4.49
Cc1nnc(-c2ccccc2)c(=O)n1N | 0.83
Cc1ccc(S(=O)(=O)CC(=O)c2ccc(Cl)cc2)cc1 | 3.43
